In ChEMBL document CHEMBL4196147 (J Nat Prod, 2018):

Tests used:
HCT-116 = test: Cytotoxicity against human HCT116 cells assessed as decrease in cell viability after 48 hrs by MTT assay; format: functional, cell-based; conditions: HCT-116, 48 h
L02 = test: Cytotoxicity against human LO2 cells assessed as decrease in cell viability after 48 hrs by MTT assay; format: ADME, cell-based; conditions: L02, 48 h
[1] = Cytotoxicity against human Huh7.5 cells assessed as decrease in cell viability after 48 hrs by MTT assay; format: functional, cell-based; conditions: Huh7.5, 48 h
K562 = test: Cytotoxicity against human K562 cells assessed as decrease in cell viability after 48 hrs by MTT assay; format: functional, cell-based; conditions: K562, 48 h

Structure (SMILES) | IC50 (HCT-116) | IC50 (L02) | IC50 [1] | IC50 (K562)
CC(=O)N[C@@H]1C[C@H]2O[C@@](C)([C@@H]1O)n1c3ccccc3c3c4c(c5c6ccccc6n2c5c31)C(=O)NC4 | 1 µM | 24.2 µM | 2.1 µM | 5.2 µM
C[C@]12O[C@H](C[C@@H](N)[C@H]1O)n1c3ccccc3c3c4c(c5c6ccccc6n2c5c31)CNC4=O | 0.2 µM | 2.7 µM | 0.4 µM | 0.9 µM
C[C@@H]1O[C@@H](n2c3ccccc3c3c4c(c5c6ccccc6[nH]c5c32)CNC4=O)[C@H](O)[C@H](O)[C@H]1O | 9 µM | 73.8 µM | 46 µM | > 100 µM
CC(=O)N[C@@H]1C[C@H]2O[C@@](C)([C@@H]1O)n1c3ccc(O)cc3c3c4c(c5c6ccccc6n2c5c31)C(=O)NC4 | 2.7 µM | > 100 µM | > 100 µM | 8.8 µM
CC(=O)c1cccn1[C@@H]1C[C@H]2O[C@@](C)([C@@H]1O)n1c3ccccc3c3c4c(c5c6ccccc6n2c5c31)C(=O)NC4 | 3.9 µM | > 100 µM | 2.7 µM | 10.5 µM
C[C@@H]1O[C@@H](n2c3ccccc3c3c4c(c5c6ccccc6[nH]c5c32)CNC4=O)C[C@@H](N)[C@H]1O | 5.1 µM | 5.8 µM | 7 µM | 7.7 µM
CC(=O)N[C@@H]1C[C@H](n2c3ccccc3c3c4c(c5c6ccccc6[nH]c5c32)CNC4=O)O[C@@H](C)[C@@H]1O | > 100 µM | 41.1 µM | 35.2 µM | 32.4 µM
